Measurements taken from PubChem BioAssay (NCI).
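Dose response: 5 concentrations. Exposure: 48 h. Format: 96-well plates. Endpoint: linear interpolation; highest concentration if not reached. TGI: concentration producing complete growth inhibition.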

What was measured:
Test in all cases: NCI anticancer screen, dose series, 48 h
COLO 205 colon = test system: COLO 205 colon
RPMI-8226 leukemia = test system: RPMI-8226 leukemia
LOX IMVI melanoma = test system: LOX IMVI melanoma
NCI-H226 lung = test system: NCI-H226 lung
HT29 colon = test system: HT29 colon
HCT-15 colon = test system: HCT-15 colon
SK-MEL-28 melanoma = test system: SK-MEL-28 melanoma
SK-MEL-5 melanoma = test system: SK-MEL-5 melanoma
OVCAR-8 ovarian = test system: OVCAR-8 ovarian
OVCAR-4 ovarian = test system: OVCAR-4 ovarian
A549 NSCLC = test system: A549 NSCLC
NCI/ADR-RES ovarian = test system: NCI/ADR-RES ovarian
UACC-257 melanoma = test system: UACC-257 melanoma
DU-145 prostate = test system: DU-145 prostate
SN12C renal = test system: SN12C renal
SNB-75 CNS = test system: SNB-75 CNS
MDA-MB-435 = test system: MDA-MB-435
IGROV1 ovarian = test system: IGROV1 ovarian
MDA-MB-231 breast = test system: MDA-MB-231 breast
HOP-92 NSCLC = test system: HOP-92 NSCLC
CCRF-CEM leukemia = test system: CCRF-CEM leukemia
HOP-62 NSCLC = test system: HOP-62 NSCLC
SF-295 CNS = test system: SF-295 CNS
OVCAR-3 ovarian = test system: OVCAR-3 ovarian
CAKI-1 renal = test system: CAKI-1 renal
TK-10 renal = test system: TK-10 renal
HCT-116 colon = test system: HCT-116 colon
T-47D breast = test system: T-47D breast
KM12 colon = test system: KM12 colon
MCF7 breast = test system: MCF7 breast
HL-60(TB) leukemia = test system: HL-60(TB) leukemia
NCI-H23 lung = test system: NCI-H23 lung
K-562 leukemia = test system: K-562 leukemia
UO-31 renal = test system: UO-31 renal
SW-620 colon = test system: SW-620 colon
ACHN renal = test system: ACHN renal
M14 melanoma = test system: M14 melanoma
MDA-N = test system: MDA-N
U251 CNS = test system: U251 CNS
MOLT-4 leukemia = test system: MOLT-4 leukemia
PC-3 prostate = test system: PC-3 prostate
SK-MEL-2 melanoma = test system: SK-MEL-2 melanoma
HCC-2998 colon = test system: HCC-2998 colon
MALME-3M melanoma = test system: MALME-3M melanoma
SK-OV-3 ovarian = test system: SK-OV-3 ovarian
UACC-62 melanoma = test system: UACC-62 melanoma
SNB-19 CNS = test system: SNB-19 CNS
NCI-H522 lung = test system: NCI-H522 lung
A498 renal = test system: A498 renal
EKVX NSCLC = test system: EKVX NSCLC
OVCAR-5 ovarian = test system: OVCAR-5 ovarian
786-0 renal = test system: 786-0 renal

In the case of COc1cc(C(c2cc3c(cc2O)OCO3)N2CCCC2)cc(OC)c1OC (configuration not stated), the TGI (COLO 205 colon) is reported as 26.5 µM, the TGI (RPMI-8226 leukemia) is reported as 41.5 µM and the TGI (LOX IMVI melanoma) is reported as 31.9 µM. For the same compound, the TGI (NCI-H226 lung) was 33.8 µM, the TGI (HT29 colon) was 28 µM and the TGI (HCT-15 colon) was 29.2 µM. For the same compound, the TGI (SK-MEL-28 melanoma) was 41.4 µM, the TGI (SK-MEL-5 melanoma) was 41.5 µM and the TGI (OVCAR-8 ovarian) was 34 µM. The TGI (OVCAR-4 ovarian) was 34.2 µM, the TGI (A549 NSCLC) was 48.9 µM and the TGI (NCI/ADR-RES ovarian) was 56.4 µM. For the same compound, the TGI (UACC-257 melanoma) was 36.6 µM, the TGI (DU-145 prostate) was 36 µM and the TGI (SN12C renal) was 45.9 µM. For the same compound, the TGI (SNB-75 CNS) was 32.7 µM, the TGI (MDA-MB-435) was 32.5 µM and the TGI (IGROV1 ovarian) was 27.8 µM. For the same compound, the TGI (MDA-MB-231 breast) was 31.3 µM, the TGI (HOP-92 NSCLC) was 20 µM and the TGI (CCRF-CEM leukemia) was 5.95 µM. It also gave a TGI (HOP-62 NSCLC) of 97.5 µM, a TGI (SF-295 CNS) of 36 µM and a TGI (OVCAR-3 ovarian) of 34.9 µM. The TGI (CAKI-1 renal) was 27 µM, the TGI (TK-10 renal) was 37.5 µM and the TGI (HCT-116 colon) was 29.8 µM. The TGI (T-47D breast) was 45.7 µM, the TGI (KM12 colon) was 37.2 µM and the TGI (MCF7 breast) was 63.8 µM. The TGI (HL-60(TB) leukemia) was 6.06 µM, the TGI (NCI-H23 lung) was 33.1 µM and the TGI (K-562 leukemia) was 21.1 µM. The TGI (UO-31 renal) was 28.1 µM, the TGI (SW-620 colon) was > 100 µM and the TGI (ACHN renal) was 28.8 µM. The TGI (M14 melanoma) was > 100 µM, the TGI (MDA-N) was 27.9 µM and the TGI (U251 CNS) was 37.8 µM. For the same compound, the TGI (MOLT-4 leukemia) was 20.7 µM, the TGI (PC-3 prostate) was 34.7 µM and the TGI (SK-MEL-2 melanoma) was 40 µM. The TGI (HCC-2998 colon) was 88.1 µM, the TGI (MALME-3M melanoma) was 20.7 µM and the TGI (SK-OV-3 ovarian) was > 100 µM. The TGI (UACC-62 melanoma) was 33.9 µM, the TGI (SNB-19 CNS) was 38.2 µM and the TGI (NCI-H522 lung) was 11.5 µM. It also gave a TGI (A498 renal) of 36.8 µM, a TGI (EKVX NSCLC) of 30 µM and a TGI (OVCAR-5 ovarian) of 89.7 µM. The TGI (786-0 renal) was 28.8 µM.
